Literature values in US12453819B2, “Injector” (Antares Pharma, Inc., priority 2018, dated 2025).
Where a name gives a salt, the structure may show the parent alone.

Row | Compound | solubility in water: parts of water dissolving one part (as described in USP (soluble)) | solubility in alcohol (descriptive term) | solubility in chloroform (descriptive term) | solubility in ether (descriptive term) | solubility in water (descriptive term) | log P
1 | C=CCN1CC[C@]23c4c5ccc(O)c4O[C@H]2C(=O)CC[C@@]3(O)[C@H]1C5 [Naloxone hydrochloride] | 10-30 parts of water | slightly soluble | practically insoluble | practically insoluble | soluble | –
2 | C=CCN1CC[C@]23c4c5ccc(O)c4O[C@H]2C(=O)CC[C@@]3(O)[C@H]1C5 [Naloxone, 17-allyl-4,5α-epoxy, 3-14-dihydroxymorphine-6-one] | – | – | – | – | – | 1.92
